The source of these data is patent US20030013140A1, “Method of detecting ligand or ligand-like low-molecular weight compound” (priority 2000, published 2003).

Format in all cases: cell-based
For test [1], the target named is T1, human IL-10 receptor (BAF/hIL-10R cell line) (Homo sapiens, UniProt Q13651).
T1 construct: expressed in transfected cells; host or cells: BAF/B03 (mouse IL-3-dependent pro-B cell line), vector pIRESpuro
T1 sequence (Q13651 22-578): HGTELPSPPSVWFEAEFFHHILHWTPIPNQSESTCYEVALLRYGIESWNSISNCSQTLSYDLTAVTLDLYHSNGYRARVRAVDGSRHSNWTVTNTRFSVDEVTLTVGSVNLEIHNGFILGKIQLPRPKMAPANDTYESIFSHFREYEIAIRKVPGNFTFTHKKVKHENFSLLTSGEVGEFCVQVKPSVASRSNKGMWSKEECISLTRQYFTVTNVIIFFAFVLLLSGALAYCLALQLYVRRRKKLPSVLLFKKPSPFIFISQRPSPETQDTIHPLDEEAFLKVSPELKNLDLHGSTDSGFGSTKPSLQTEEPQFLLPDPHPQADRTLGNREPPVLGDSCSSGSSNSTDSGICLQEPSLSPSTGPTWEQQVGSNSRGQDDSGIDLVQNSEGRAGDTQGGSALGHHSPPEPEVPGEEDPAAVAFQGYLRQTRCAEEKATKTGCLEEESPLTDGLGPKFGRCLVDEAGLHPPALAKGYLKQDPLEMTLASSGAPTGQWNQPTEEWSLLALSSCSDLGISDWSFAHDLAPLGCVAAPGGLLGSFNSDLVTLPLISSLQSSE
T1 sequence (Q61190 20-349 partner): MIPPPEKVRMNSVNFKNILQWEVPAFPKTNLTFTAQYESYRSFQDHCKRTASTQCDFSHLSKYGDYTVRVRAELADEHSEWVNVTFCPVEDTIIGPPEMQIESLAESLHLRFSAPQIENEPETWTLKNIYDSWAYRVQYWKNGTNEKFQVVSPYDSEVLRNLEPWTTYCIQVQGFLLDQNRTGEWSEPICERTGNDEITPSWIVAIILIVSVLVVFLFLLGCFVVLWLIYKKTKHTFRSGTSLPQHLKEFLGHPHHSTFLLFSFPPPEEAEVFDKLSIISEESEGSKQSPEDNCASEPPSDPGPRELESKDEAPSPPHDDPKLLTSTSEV
Description: Cytoproliferative activity of the human IL-10-dependent cell line BAF/hIL-10R (WST-1/1-methoxy PMS, 450 nm). Particulars: 2-mercaptoethanol 5×10^-5 M vs medium alone; marked differences at rhIL-10 10, 100 and 1,000 ng/mL; FIG. 6. The procedure: Upon determining cytoproliferative activity, a cell line transfected with the human IL-10 receptor gene (BAF/hIL-10R) was recovered and, subsequent to its washing with PBS(−), was suspended in DMEM medium ((−)FCS). The cells were prepared at 5×10^4 cells/well on a 96-well plate. To the individual wells, rhIL-10 was added at 0, 0.0001, 0.001, 0.01, 0.1, 1, 10, 100 or 1,000 ng/mL, respectively, followed by incubation at 5% CO2 and 37° C. for 48 hours. Subsequent to the incubation, the WST-1/1-methoxy PMS solution (product of Dojindo Laboratories) was added (final concentration: 5 mM), and a staining reaction was then conducted in a CO2 incubator. After the reaction, measurement was conducted at a measurement wavelength of 450 nm.
With respect to the cell line (BAF/hIL-10R) obtained in Example 2 with the human IL-10 receptor gene introduced therein, effects which may be given to its screening by the existence of a reducing agent (2-mercaptoethanol) was investigated as will be described next. Firstly, two culture media were provided, one being a culture medium obtained by adding 2-mercaptoethanol at 5×10^−5 M to DMEM medium ((−)FCS) and the other consisting solely of DMEM medium ((−)FCS) without addition of the reducing agent. […]
Background: Formazan colour is commonly taken as a measure of viable cells.

For test [2], the target named is T2, human EPO receptor (BAF/hEPOR cell line) (Homo sapiens, UniProt P19235).
T2 construct: expressed in transfected cells; host or cells: BAF/B03 (mouse IL-3-dependent pro-B cell line), vector pIRESpuro; cDNA from a human erythroid leukemia cell line
T2 sequence (P19235 25-508): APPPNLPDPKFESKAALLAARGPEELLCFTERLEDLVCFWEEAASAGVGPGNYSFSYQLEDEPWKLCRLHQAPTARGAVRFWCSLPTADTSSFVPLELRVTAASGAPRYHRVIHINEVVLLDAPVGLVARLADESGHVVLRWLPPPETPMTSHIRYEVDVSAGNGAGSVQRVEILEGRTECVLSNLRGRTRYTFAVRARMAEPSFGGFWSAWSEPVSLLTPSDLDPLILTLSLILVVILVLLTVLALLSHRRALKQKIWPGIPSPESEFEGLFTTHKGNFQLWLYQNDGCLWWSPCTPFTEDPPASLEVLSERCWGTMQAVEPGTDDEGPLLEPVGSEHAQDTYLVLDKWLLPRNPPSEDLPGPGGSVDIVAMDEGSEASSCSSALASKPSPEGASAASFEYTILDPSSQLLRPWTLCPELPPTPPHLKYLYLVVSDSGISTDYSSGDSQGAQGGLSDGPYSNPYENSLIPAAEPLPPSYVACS
Description: Cytoproliferative activity of the human EPO-dependent cell line BAF/hEPOR (WST-1/1-methoxy PMS, 450 nm). Particulars: 2-mercaptoethanol 5×10^-5 M vs medium alone; FIG. 9.
Description: Upon determining cytoproliferative activity, a cell line transfected with the human EPO receptor gene (BAF/hEPOR) was recovered and, subsequent to its washing with PBS(−), was suspended in DMEM medium ((−)FCS). The cells were prepared at 5×10^4 cells/well on a 96-well plate. […] Subsequent to the incubation, a WST-1/1-methoxy PMS solution (product of Dojindo Laboratories) was added to the individual wells (final concentration: 5 mM), and a staining reaction was then conducted in a CO2 incubator. After the reaction, measurement was conducted at a measurement wavelength of 450 nm.
With respect to the cell line (BAF/hEPOR) obtained in Example 8 with the human EPO receptor gene introduced therein, effects which may be given to its screening by the existence of a reducing agent (2-mercaptoethanol) was investigated as will be described next. Firstly, two culture media were provided, one being a culture medium obtained by adding 2-mercaptoethanol at 5×10^−5 M to DMEM medium ((−)FCS) and the other consisting solely of DMEM medium ((−)FCS) without addition of the reducing agent. Those culture media were poured into individual wells of 96-well plates, respectively, and BAF/hEPOR which had been washed with PBS(−) was suspended at 5×10^4 cells/well. […]

Test [3] deals with T3, human G-CSF receptor (BAF/hGCSFR cell line) (Homo sapiens, UniProt Q99062).
T3 construct: expressed in transfected cells; host or cells: BAF/B03 (mouse IL-3-dependent pro-B cell line), vector pIRESpuro
T3 sequence (Q99062 25-836): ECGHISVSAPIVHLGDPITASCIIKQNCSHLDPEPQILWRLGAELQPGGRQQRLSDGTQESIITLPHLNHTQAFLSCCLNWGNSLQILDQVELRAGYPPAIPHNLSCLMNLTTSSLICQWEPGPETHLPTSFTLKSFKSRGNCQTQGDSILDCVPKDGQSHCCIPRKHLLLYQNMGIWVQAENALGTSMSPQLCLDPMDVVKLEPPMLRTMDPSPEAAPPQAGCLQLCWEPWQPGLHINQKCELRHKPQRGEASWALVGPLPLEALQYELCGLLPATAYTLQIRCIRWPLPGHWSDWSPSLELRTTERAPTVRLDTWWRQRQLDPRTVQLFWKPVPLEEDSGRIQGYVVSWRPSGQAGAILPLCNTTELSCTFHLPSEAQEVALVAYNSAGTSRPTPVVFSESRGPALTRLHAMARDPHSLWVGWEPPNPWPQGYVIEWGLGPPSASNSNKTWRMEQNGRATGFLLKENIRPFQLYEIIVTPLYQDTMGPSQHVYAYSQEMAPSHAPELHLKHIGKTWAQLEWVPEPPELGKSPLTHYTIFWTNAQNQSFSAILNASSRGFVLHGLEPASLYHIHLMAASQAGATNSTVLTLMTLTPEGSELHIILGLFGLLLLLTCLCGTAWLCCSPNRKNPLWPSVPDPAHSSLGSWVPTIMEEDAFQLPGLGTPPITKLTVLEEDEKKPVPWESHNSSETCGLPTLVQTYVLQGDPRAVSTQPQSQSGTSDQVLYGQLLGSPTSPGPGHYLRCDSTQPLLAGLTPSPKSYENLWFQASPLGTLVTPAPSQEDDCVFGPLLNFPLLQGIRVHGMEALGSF
Description: Cytoproliferative activity of the human G-CSF-dependent cell line BAF/hGCSFR (WST-1/1-methoxy PMS, 450 nm). How it is done:
Upon determining cytoproliferative activity, a cell line transfected with the human G-CSF receptor gene (BAF/hGCSFR) was recovered and, subsequent to its washing with PBS(−), was suspended in DMEM medium ((−)FCS). The cells were prepared at 5×10^4 cells/well on a 96-well plate. To the individual wells, rhG-CSF was added at 0, 0.025, 0.1, 0.4, 1.6 or 6.4 ng/mL, respectively, followed by incubation at 5% CO2 and 37° C. for 48 hours. Subsequent to the incubation, a WST-1/1-methoxy PMS solution (product of Dojindo Laboratories) was added to the individual wells (final concentration: 5 mM), and a staining reaction was then conducted in a CO2 incubator. After the reaction, measurement was conducted at a measurement wavelength of 450 nm.
With respect to the cell line (BAF/hGCSFR) obtained in Example 1 with the human G-CSF receptor gene introduced therein, effects which may be given to its screening by the existence of a reducing agent (2-mercaptoethanol) was investigated as will be described next. Firstly, two culture media were provided, one being a culture medium obtained by adding 2-mercaptoethanol at 5×10^−5 M to DMEM medium ((−)FCS) and the other consisting solely of DMEM medium ((−)FCS) without incorporation of the additives. […]

With `OCCS` [2-mepcaptoethanol, 2-mercaptoethanol], the “effect of reducing agent on cytoproliferation of BAF/hIL-10R in the presence of rhIL-10” value in test [1] is reported as “enhanced”. In addition, the “effect of reducing agent on cytoproliferation of BAF/hEPOR in the presence of rhEPO” value in test [2] is “enhanced”. In addition, the “effect of reducing agent on cytoproliferation of BAF/hG-CSFR in the presence of rhG-CSF” value in test [3] (2-mercaptoethanol 5×10^-5 M vs medium alone, marked differences at rhG-CSF 0.1, 0.4, 1.6 and 6.4 ng/mL, FIG. 3) is given as “enhanced”.
In the case of `c1ccc(C23N=C(Nc4nc5ccccc5[nH]4)NC2(c2ccccn2)NC(Nc2nc4ccccc4[nH]2)=N3)nc1` (stereo not shown) [SB247464, reference compound], the “cytoproliferation of BAF/hG-CSFR in the presence of SB247464 on addition of WEHI sup to the culture medium” value in test [3] (WEHIsup 1.25% with 2-mercaptoethanol 5×10^-5 M vs medium alone, SB247464 0 to 10^-6 M, marked differences at 10^-8, 10^-9 and 10^-10, FIG. 5) is listed as “enhanced”.
